Reference: BindingDB's records for doi:10.1016/j.bmcl.2007.11.067 (Bristol-Myers Squibb, 2008)

test: Antagonist activity at CCR3 receptor in mouse eosinophil assessed as as inhibition of chemotaxis

`C[C@@H](NC(=O)Nc1cccc(-c2nnnn2C)c1)[C@@H](O)CN1CCC[C@@H](Cc2ccc(F)cc2)C1` [1-{(1R,2S)-3-[(S)-3-(4-Fluoro-benzyl)-piperidin-1-yl]-2-hydroxy-1-methyl-propyl}-3-[3-(1-methyl-1H-tetrazol-5-yl)-phenyl]-urea] gave an IC50 of 870 nM.

test: Antagonist activity at CCR3 receptor in cynomolgus monkey eosinophil assessed as as inhibition of chemotaxis

With `C[C@@H](NC(=O)Nc1cccc(-c2nnnn2C)c1)[C@@H](O)CN1CCC[C@@H](Cc2ccc(F)cc2)C1` [1-{(1R,2S)-3-[(S)-3-(4-Fluoro-benzyl)-piperidin-1-yl]-2-hydroxy-1-methyl-propyl}-3-[3-(1-methyl-1H-tetrazol-5-yl)-phenyl]-urea] the IC50 was 0.15 nM.

test: Antagonist activity at human CCR3 receptor in human eosinophil assessed as inhibition of eotaxin-induced chemotaxis

`CC(C)c1cc(NC(=O)N[C@H](C)CCN2CCC[C@@H](Cc3ccc(F)cc3)C2)cc(-c2nnnn2C)c1` and `CCc1cc(NC(=O)N[C@H](C)CCN2CCC[C@@H](Cc3ccc(F)cc3)C2)cc(-c2nnnn2C)c1` are within 1.5-fold of each other in IC50: 0.021 nM for the first, 0.02 nM for the second.

Going from `CC(=O)c1cccc(NC(=O)NCCCN2CCC[C@@H](Cc3ccc(F)cc3)C2)c1` [1-(3-Acetyl-phenyl)-3-{3-[(S)-3-(4-fluoro-benzyl)-piperidin-1-yl]-propyl}-urea] to `CC(=O)c1cc(NC(=O)NCCCN2CCC[C@@H](Cc3ccc(F)cc3)C2)cc(C(C)=O)c1` [(S)-1-(3-(3-(4-fluorobenzyl)piperidin-1-yl)propyl)-3-(3,5-diacetylphenyl)urea], the IC50 falls from 25 nM to 3 nM (8.3-fold). The second is the more potent here.

First: CC(=O)c1cc(NC(=O)N[C@@H](C)CCN2CCC[C@@H](Cc3ccc(F)cc3)C2)cc(C(C)=O)c1
Second: CC(=O)c1cc(NC(=O)N[C@H](C)CCN2CCC[C@@H](Cc3ccc(F)cc3)C2)cc(C(C)=O)c1
The IC50 of the first is 300-fold higher: 60 nM for the first, 0.2 nM for the second.

Compared with `Cc1cc(NC(=O)NCCCN2CCC[C@@H](Cc3ccc(F)cc3)C2)cc(-c2nnnn2C)c1` [1-{3-[(S)-3-(4-Fluoro-benzyl)-piperidin-1-yl]-propyl}-3-[3-methyl-5-(1-methyl-1H-tetrazol-5-yl)-phenyl]-urea], `CC(C)c1cc(NC(=O)NCCCN2CCC[C@@H](Cc3ccc(F)cc3)C2)cc(-c2nnnn2C)c1` is 3.3-fold lower in IC50: 1 nM for the first, 0.3 nM for the second.

First: CCC[C@H](CCN1CCC[C@@H](Cc2ccc(F)cc2)C1)NC(=O)Nc1cc(-c2nnnn2C)cc(C(C)(C)O)c1
Second: CC[C@H](CCN1CCC[C@@H](Cc2ccc(F)cc2)C1)NC(=O)Nc1cc(-c2nnnn2C)cc(C(C)(C)O)c1
The IC50 of the first is 9.1-fold lower: 0.011 nM for the first, 0.1 nM for the second.

Going from `C[C@H](CCN1CCC[C@@H](Cc2ccc(F)cc2)C1)NC(=O)Nc1cc(-n2cccn2)cc(-n2cccn2)c1` to `O=C(NCCCN1CCC[C@@H](Cc2ccc(F)cc2)C1)Nc1cc(-n2cccn2)cc(-n2cccn2)c1`, the IC50 rises from 0.1 nM to 5 nM (50-fold). The first is the more potent here.

Going from `C[C@@H](NC(=O)Nc1cccc(-c2nnnn2C)c1)[C@@H](O)CN1CCC[C@@H](Cc2ccc(F)cc2)C1` [1-{(1R,2S)-3-[(S)-3-(4-Fluoro-benzyl)-piperidin-1-yl]-2-hydroxy-1-methyl-propyl}-3-[3-(1-methyl-1H-tetrazol-5-yl)-phenyl]-urea] to `C[C@H](CCN1CCC[C@@H](Cc2ccc(F)cc2)C1)NC(=O)Nc1cccc(-c2nnnn2C)c1`, the IC50 rises from 0.04 nM to 1.1 nM (28-fold).

Going from `C[C@H](CC(=O)N1CCC[C@@H](Cc2ccc(F)cc2)C1)NC(=O)Nc1cccc(-c2nnnn2C)c1` to `C[C@@H](CCN1CCC[C@@H](Cc2ccc(F)cc2)C1)NC(=O)Nc1cccc(-c2nnnn2C)c1`, the IC50 rises from 0.2 nM to over 1 nM. The first is the more potent here.

Compared with `Cn1nnnc1-c1cccc(NC(=O)NCCCN2CCC[C@@H](Cc3ccc(F)cc3)C2)c1` [1-{3-[(S)-3-(4-Fluoro-benzyl)-piperidin-1-yl]-propyl}-3-[3-(1-methyl-1H-tetrazol-5-yl)-phenyl]-urea], `CC(=O)c1cc(NC(=O)N[C@H](C)CCN2CCC[C@@H](Cc3ccc(F)cc3)C2)cc(-c2nnnn2C)c1` is 160-fold lower in IC50: 3.2 nM for the first, 0.02 nM for the second. The second is the more potent here.
